The target of the assay is T1, Human complement C1s enzyme (Homo sapiens, UniProt P09871).
T1 construct: purified from human serum, Complement Technology, Inc; purchased Complement Technology, Inc; host or cells: human serum (plasma-derived native protein)
T1 sequence (P09871 438-688 limits assumed): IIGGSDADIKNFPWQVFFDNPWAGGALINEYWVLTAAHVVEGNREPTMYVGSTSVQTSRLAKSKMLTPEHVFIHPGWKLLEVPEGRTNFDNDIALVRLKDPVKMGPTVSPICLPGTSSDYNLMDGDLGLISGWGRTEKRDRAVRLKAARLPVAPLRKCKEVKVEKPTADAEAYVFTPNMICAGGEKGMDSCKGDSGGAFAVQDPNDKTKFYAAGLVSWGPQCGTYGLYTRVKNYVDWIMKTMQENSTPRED
T1 sequence (P09871 16-437 partner limits assumed): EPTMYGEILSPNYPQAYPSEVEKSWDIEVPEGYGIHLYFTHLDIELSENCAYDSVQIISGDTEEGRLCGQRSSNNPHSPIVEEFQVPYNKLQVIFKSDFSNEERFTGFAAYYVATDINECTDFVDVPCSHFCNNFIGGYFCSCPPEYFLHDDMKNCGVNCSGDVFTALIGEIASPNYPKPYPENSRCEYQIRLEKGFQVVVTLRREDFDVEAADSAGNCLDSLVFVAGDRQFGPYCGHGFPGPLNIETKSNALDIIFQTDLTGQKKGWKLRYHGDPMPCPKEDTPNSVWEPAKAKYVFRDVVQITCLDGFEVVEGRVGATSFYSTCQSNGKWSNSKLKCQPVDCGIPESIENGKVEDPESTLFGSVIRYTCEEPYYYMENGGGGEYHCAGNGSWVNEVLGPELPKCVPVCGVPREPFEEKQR
The experiment in a line: Human C1s enzyme assay. The settings on record: human complement C1s enzyme 1.16 nM, substrate Z-L-Lys-SBzl, A405; read-out: IC50 (Stars). Format: biochemical. The gist of the method:
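Thioesterase activity followed colorimetrically (DTNB, A405, 30-s reads) using 100 μM Z-L-Lys-SBzl substrate. Enzyme, human serum-derived C1s at 1.16 nM final, was incubated with test compound for 5 min, room temperature, pH 7.5 Tris buffer with 1 M NaCl. Rate-versus-concentration data fitted by nonlinear regression for IC50.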

Some results are limits rather than exact numbers.

One may read the IC50 as the concentration that gives 50% inhibition.

For `CP(=O)(O)c1ccc(-c2ncc(NCCCc3ccccc3)c(=O)n2CC(=O)NCc2cc3cnccc3[nH]2)cc1` [Compound 68, (4-(1-(2-(((1H-pyrrolo[3,2-c]pyridine-2-yl)methyl)amino)-2-oxoethyl)-6-oxo-5-((3-phenylpropyl)amino)-1,6-dihydropyrimidin-2-yl)phenyl)(methyl)phosphinic acid], the half-inhibitory concentration (IC50) was less than 100 nM. As to `CS(=O)(=O)c1ccc(-c2ncc(NCCCc3ccccc3)c(=O)n2CC(=O)NCc2cc3cnccc3[nH]2)cc1` [Compound 69, N-((1H-pyrrolo[3,2-c]pyridine-2-yl)methyl)-2-(2-(4-(methylsulfonyl)phenyl)-6-oxo-5-((3-phenylpropyl)amino)pyrimidin-1(6H)-yl)acetamide], the IC50 was less than 100 nM. Under `O=C(Cn1c(-c2ccccc2)ncc(Br)c1=O)NCc1cc2cnccc2[nH]1` [Compound 71, N-((1H-pyrrolo[3,2-c]pyridin-2-yl)methyl)-2-(5-bromo-6-oxo-2-phenylpyrimidin-1(6H)-yl)acetamide] stands 100 to 1000 nM; under `O=C(Cn1c(-c2ccccc2)ncc(NC(=O)c2ccc(Oc3ccccc3Cl)cc2)c1=O)NCc1cc2cnccc2[nH]1` [Compound 72, N-(1-(2-(((1H-pyrrolo[3,2-c]pyridin-2-yl)methyl)amino)-2-oxoethyl)-6-oxo-2-phenyl-1,6-dihydropyrimidin-5-yl)-4-(2-chlorophenoxy)benzamide], less than 100 nM.

For the compound `O=C(Cn1c(-c2ccccc2)ncc(NC(=O)c2ccc(C(=O)c3ccccc3)cc2)c1=O)NCc1cc2cnccc2[nH]1` [Compound 73, N-(1-(2-(((1H-pyrrolo[3,2-c]pyridin-2-yl)methyl)amino)-2-oxoethyl)-6-oxo-2-phenyl-1,6-dihydropyrimidin-5-yl)-4-benzoylbenzamide], the IC50 was less than 100 nM. Next, `O=C(Cn1c(-c2ccccc2)ncc(NC(=O)c2ccc(Oc3ccccc3)nc2)c1=O)NCc1cc2cnccc2[nH]1` [Compound 74, N-(1-(2-(((1H-pyrrolo[3,2-c]pyridin-2-yl)methyl)amino)-2-oxoethyl)-6-oxo-2-phenyl-1,6-dihydropyrimidin-5-yl)-6-phenoxynicotinamide]: less than 100 nM; `O=C(Cn1c(-c2ccccc2)ncc(NC(=O)c2ccc(-c3ccsc3)cc2)c1=O)NCc1cc2cnccc2[nH]1` [Compound 75, N-(1-(2-(((1H-pyrrolo[3,2-c]pyridin-2-yl)methyl)amino)-2-oxoethyl)-6-oxo-2-phenyl-1,6-dihydropyrimidin-5-yl)-4-(thiophen-3-yl)benzamide]: less than 100 nM; `O=C(Cn1c(-c2ccccc2)ncc(NC(=O)NCC2CCCCC2)c1=O)NCc1cc2cnccc2[nH]1` [Compound 76, N-((1H-pyrrolo[3,2-c]pyridine-2-yl)methyl)-2-(5-(3-(cyclohexylmethyl)ureido)-6-oxo-2-phenylpyrimidin-1(6H)-yl)acetamide]: 100 to 1000 nM. For the compound `O=C(Cn1c(-c2ccccc2)ncc(NCCCc2ccc(C3CC3)cc2)c1=O)NCc1cc2cnccc2[nH]1` [Compound 77, N-((1H-pyrrolo[3,2-c]pyridin-2-yl)methyl)-2-(5-((3-(4-cyclo-propylphenyl)propyl)amino)-6-oxo-2-phenylpyrimidin-1(6H)-yl)acetamide], the concentration for half-maximal inhibition (IC50) was less than 100 nM. For the compound `O=C(Cn1c(-c2ccccc2)ncc(NC(=O)c2ccc3c(c2)-c2ccccc2C3(F)F)c1=O)NCc1cc2cnccc2[nH]1` [Compound 78, N-(1-(2-(((1H-pyrrolo[3,2-c]pyridin-2-yl)methyl)amino)-2-oxoethyl)-6-oxo-2-phenyl-1,6-dihydropyrimidin-5-yl)-9,9-difluoro-9H-fluorene-3-carbox-amide], the half-inhibitory concentration (IC50) is less than 100 nM.

On to `O=C(Cn1c(-c2ccccc2)ncc(NC(=O)NCc2ccccc2)c1=O)NCc1cc2cnccc2[nH]1` [Compound 79, N-((1H-pyrrolo[3,2-c]pyridin-2-yl)methyl)-2-(5-(3-benzyl-ureido)-6-oxo-2-phenylpyr-imidin-1(6H)-yl)acetamide], for which the IC50 was 100 to 1000 nM.

Turning to `O=C(Cc1cc(NCCCc2ccccc2)ncc1-c1ccccc1)NCc1cc2cnccc2[nH]1` [Compound 80, N-((1H-pyrrolo[3,2-c]pyridine-2-yl)methyl)-2-(5-phenyl-2-((3-phenylpropyl)amino)pyridine-4-yl)acetamide], the IC50 was more than 1000 nM. With `O=C(Cn1c(-c2ccccc2)ncc(-c2nc3ccc(Oc4ccccc4)cc3[nH]2)c1=O)NCc1cc2cnccc2[nH]1` [Compound 81, N-((1H-pyrrolo[3,2-c]pyridin-2-yl)methyl)-2-(6-oxo-5-(6-phenoxy-1H-benzo[d]imidazol-2-yl)-2-phenylpyrimidin-1(6H)-yl)acetamide], the half-inhibitory concentration (IC50) is more than 1000 nM. `O=C(Cn1c(-c2ccccc2)ncc(-c2nc3ccccc3[nH]2)c1=O)NCc1cc2cnccc2[nH]1` [Compound 82, 2-(5-(1H-benzo[d]pyridine-2-yl)-6-oxo-2-phenylpyrimidin-1(6H)-yl)-N-((1H-pyrrolo[3,2-c]pyridine-2-yl)methyl)acetamide]: the IC50 is more than 1000 nM.

On to `O=C(Cn1c(-c2ccccc2)ncc(NC(=O)c2cc3ccc2CCc2ccc(cc2)CC3)c1=O)NCc1cc2cnccc2[nH]1` [Compound 83, N-(1-(2-(((1H-pyrrolo[3,2-c]pyridine-2-yl)methyl)amino)-2-oxoethyl)-6-oxo-2-phenyl-1,6-dihydropyrimidin-5-yl)-1,4(1,4)-dibenzenacyclohexaphane-1^2-carboxamide], for which the IC50 was more than 1000 nM. Next, `CS(=O)(=NC#N)c1ccc(CCCNc2cnc(-c3ccccc3)n(CC(=O)NCc3cc4cnccc4[nH]3)c2=O)cc1` (stereo not drawn) [Compound 84, N-((1H-pyrrolo[3,2-c]pyridine-2-yl)methyl)-2-(5-((3-(4-(N-cyano-S-methylsulfonimidoyl)phenyl)propyl)amino)-6-oxo-2-phenylpyrimidin-1(6H)-yl)acetamide]: less than 100 nM.

As for `Cc1c(NCCCc2ccccc2)ccc(-c2ccccc2)c1CC(=O)NCc1cc2cnccc2[nH]1` [Compound 85, N-((1H-pyrrolo[3,2-c]pyridine-2-yl)methyl)-2-(3-methyl-4-((3-phenylpropyl)amino)-[1,1′-biphenyl]-2-yl)acetamide], the half-inhibitory concentration (IC50) was more than 1000 nM.

On to `O=C(Cn1c(-c2ccc(OC3COC3)cc2)ncc(NCCCc2ccccc2)c1=O)NCc1cc2cnccc2[nH]1` [Compound 86, N-((1H-pyrrolo[3,2-c]pyridine-2-yl)methyl)-2-(2-(4-(oxetan-3-yloxy)phenyl)-6-oxo-5-((3-phenylpropyl)amino)pyrimidin-1(6H)-yl)acetamide], for which the concentration for half-maximal inhibition (IC50) is less than 100 nM.

As to `CO[C@@H]1CO[C@H]2[C@@H]1OC[C@H]2Oc1ncc(NCCCc2ccccc2)c(=O)n1CC(=O)NCc1cc2cnccc2[nH]1` [Compound 87, N-((1H-pyrrolo[3,2-c]pyridine-2-yl)methyl)-2-(2-(((3R,3aR,6R,6aR)-6-methoxyhexahydrofuro[3,2-b]furan-3-yl)oxy)-6-oxo-5-((3-phenylpropyl)amino)pyrimidin-1(6H)-yl)acetamide], the half-inhibitory concentration (IC50) was in the range of 100 to 1000 nM.

As for `O=C(Cn1c(-c2ccccc2)ncc(NCCCC(=O)c2ccc(Oc3ccccc3)cc2)c1=O)NCc1cc2cnccc2[nH]1` [Compound 88, N-((1H-pyrrolo[3,2-c]pyridin-2-yl)methyl)-2-(6-oxo-5-((4-oxo-4-(4-phenoxyphenyl)but-yl)amino)-2-phenylpyrimidin-1(6H)-yl)acetamide], the half-inhibitory concentration (IC50) was less than 100 nM. Consider `CCOP(=O)(COc1ccc(-c2ncc(NCCCc3ccccc3)c(=O)n2CC(=O)NCc2cc3cnccc3[nH]2)cc1)OCC` [Compound 89, diethyl ((4-(1-(2-(((1H-pyrrolo[3,2-c]pyridine-2-yl)methyl)amino)-2-oxoethyl)-6-oxo-5-((3-phenylpropyl)amino)-1,6-dihydropyrimidin-2-yl)phenoxy)methyl)phosphonate], for which the IC50 is less than 100 nM. Under `O=C(Cn1c(-c2ccccc2)ncc(NC(=O)CNC(=O)c2ccc(Oc3ccccc3)cc2)c1=O)NCc1cc2cnccc2[nH]1` [Compound 90, N-(2-((1-(2-(((1H-pyrrolo[3,2-c]pyridin-2-yl)methyl)amino)-2-oxoethyl)-6-oxo-2-phenyl-1,6-dihydropyrimidin-5-yl)-amino)-2-oxoethyl)-4-phenoxy-benzamide] stands less than 100 nM. As to `CP(=O)(O)c1ccc(CCCNc2cnc(-c3ccccc3)n(CC(=O)NCc3cc4cnccc4[nH]3)c2=O)cc1` [Compound 91, (4-(3-((1-(2-(((1H-pyrrolo[3,2-c]pyridine-2-yl)methyl)amino)-2-oxoethyl)-6-oxo-2-phenyl-1,6-dihydropyrimidin-5-yl)amino)propyl)phenyl)(methyl)phosphinic acid], the half-inhibitory concentration (IC50) was less than 100 nM. For the compound `O=C(Cn1c(-c2ccccc2)ncc(NC(=O)c2ccc(-c3ccc(F)cc3F)cc2)c1=O)NCc1cc2cnccc2[nH]1` [Compound 92, N-(1-(2-(((1H-pyrrolo[3,2-c]pyridin-2-yl)methyl)amino)-2-oxoethyl)-6-oxo-2-phenyl-1,6-dihydropyrimidin-5-yl)-2′,4′-difluoro-[1,1′-biphenyl]-4-carboxamide], the 50% inhibitory concentration (IC50) is less than 100 nM.

(Values after patent publication US20260184707A1, “PHARMACEUTICAL COMPOUNDS FOR THE TREATMENT OF COMPLEMENT MEDIATED DISORDERS” (ALEXION PHARMACEUTICALS, INC., priority 2022, published 2026).)
